Data as given in paper PMC4631608 (Journal of structural and functional genomics, 2015).

Target: M. tuberculosis Rv1496 (Mycobacterium tuberculosis, UniProt P9WPZ1)
Sequence (P9WPZ1 3-336): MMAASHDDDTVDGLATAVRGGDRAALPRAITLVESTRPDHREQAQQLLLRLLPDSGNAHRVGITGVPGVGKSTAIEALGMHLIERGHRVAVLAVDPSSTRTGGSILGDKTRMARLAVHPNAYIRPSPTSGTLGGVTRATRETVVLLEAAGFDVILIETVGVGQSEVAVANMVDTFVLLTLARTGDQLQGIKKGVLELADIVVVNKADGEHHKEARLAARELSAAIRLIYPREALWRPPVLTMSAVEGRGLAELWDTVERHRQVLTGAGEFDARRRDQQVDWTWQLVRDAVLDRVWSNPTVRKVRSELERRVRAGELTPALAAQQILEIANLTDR

## Nc1nc2c(ncn2[C@@H]2O[C@H](COP(=O)(O)OP(=O)(O)O)[C@@H](O)[C@H]2O)c(=O)[nH]1 [GDP]
  X-ray co-crystal structure, 2.45 Å: Rv1496 binds GDP via hydrogen bonds, one salt bridge, and van der Waals interactions
